Values after ≈ are worked out from the molar mass of the structure shown. Active and inactive are the calls of the source.

In test [1] the test system is Bacillus subtilis. Put plainly: Antimicrobial activity against Bacillus subtilis at 50 ug/ml. The test is classed as functional, organism-based.
The subject of test [2] is Micrococcus luteus. Put plainly: Antimicrobial activity against Micrococcus luteus at 50 ug/ml. The class given is functional, organism-based.
Test [3] concerns Bacillus anthracis. Put plainly: Antimicrobial activity against Bacillus anthracis at 50 ug/ml. The test is classed as functional, organism-based.
For test [4], the system named is Mycolicibacterium phlei. Put plainly: Antimicrobial activity against Mycobacterium phlei at 50 ug/ml. The test is classed as functional, organism-based.
The test system of test [5] is Staphylococcus aureus. Put plainly: Antimicrobial activity against Staphylococcus aureus at 50 ug/ml. The test is classed as functional, organism-based.
Test [6] deals with Mycolicibacterium smegmatis. Put plainly: Antimicrobial activity against Mycobacterium smegmatis at 50 ug/ml. The test is classed as functional, organism-based.
The test system of test [7] is Bacillus cereus. Put plainly: Antimicrobial activity against Bacillus cereus at 50 ug/ml. The test is classed as functional, organism-based.
In test [8] the test system is Micrococcus luteus. Put plainly: Antimicrobial activity against Micrococcus luteus. The test is classed as functional.
The subject of test [9] is Bacillus anthracis. Put plainly: Antimicrobial activity against Bacillus anthracis. The class given is functional.
Test [10] has as its system Mycolicibacterium phlei. Put plainly: Antimicrobial activity against Mycobacterium phlei. The test is classed as functional.
Test [11] relates to Mycolicibacterium smegmatis. Put plainly: Antimicrobial activity against Mycobacterium smegmatis. The test is classed as functional.
The test system of test [12] is Staphylococcus aureus. Put plainly: Antimicrobial activity against Staphylococcus aureus. The class given is functional.
The test system of test [13] is Bacillus subtilis. Put plainly: Antimicrobial activity against Bacillus subtilis. The test is classed as functional.
The test system of test [14] is Bacillus cereus. Put plainly: Antimicrobial activity against Bacillus cereus. The test is classed as functional.

Consider `C=C[C@@]1(C)CC[C@@H]2[C@@]3(C)CCCC(C)(C)[C@@H]3[C@@H](OC(C)=O)C[C@@]2(C)O1`, for which the result in test [1], in test [2], in test [3], in test [4], in test [5] and in [6] was inactive. In test [7], the result was inactive.
For the compound `CC[C@H]1OC(=O)[C@H](C)[C@@H](O[C@H]2C[C@@](C)(OC)[C@@H](O)[C@H](C)O2)[C@H](C)[C@@H](O[C@@H]2O[C@H](C)C[C@H](N(C)C)[C@H]2O)[C@](C)(OC)C[C@@H](C)C(=O)[C@H](C)[C@@H](O)[C@]1(C)O` [CLARITHROMYCIN], the minimal inhibitory concentration (MIC) (commonly the smallest concentration in the dilution series that meets the test's criterion for growth inhibition) stood at 2 µg/mL (≈ 2.67 µM) in test [8]; 1.3 µg/mL (≈ 1.74 µM) in [9]; 0.5 µg/mL (≈ 0.668 µM) in test [10]; 0.5 µg/mL (≈ 0.668 µM) in test [11]; 0.8 µg/mL (≈ 1.07 µM) in test [12]; 1.7 µg/mL (≈ 2.27 µM) in test [13].
Take `C=C[C@@]1(C)CC[C@@H]2[C@@]3(C)CCCC(C)(C)[C@@H]3[C@@H](OC(=O)CC(=O)O)C[C@@]2(C)O1`: the minimum inhibitory concentration (MIC) worked out at 17 µg/mL (≈ 43.3 µM) in test [8]; 15 µg/mL (≈ 38.2 µM) in test [14]; 20 µg/mL (≈ 51 µM) in test [9]; 9 µg/mL (≈ 22.9 µM) in test [10]; 7 µg/mL (≈ 17.8 µM) in test [11]; 15 µg/mL (≈ 38.2 µM) in [12]. The compound also had an MIC in test [13] of 15 µg/mL (≈ 38.2 µM).
Consider `C=C[C@@]1(C)CC[C@@H]2[C@@]3(C)CCCC(C)(C)[C@@H]3[C@@H](OC(=O)CC(=O)OCCCC)C[C@@]2(C)O1`, for which the outcome in [1], in test [2], in [3], in [4], in test [5] and in test [6] was inactive. In addition, the outcome in test [7] was inactive.
